Data set [1] can be described thus: Solubility of the drug substance. The data set is classed as physicochemical. The note with it: for solubility in water: dihydrate.
A further data set deals with analgesia. In words: Propensity for reversing analgesia after oral administration. The data set is classed as in vivo. Conditions: administered orally; compared with alvimopan.

Structures are written as SMILES.

Data on two molecules can be found in US20070092576A1, “Compositions containing opioid antagonists” (Adolor Corporation, priority 2005, published 2007).

For `C[C@H]1CN(C[C@H](Cc2ccccc2)C(=O)NCC(=O)O)CC[C@@]1(C)c1cccc(O)c1` [Alvimopan, [[2(S)-[[4(R)-(3-hydroxyphenyl)-3(R),4-dimethyl-1-piperidinyl]methyl]-1-oxo-3-phenylpropyl]amino]acetic acid dihydrate], the “solubility as a function of pH” value in data set [1] (acid pH versus basic pH) is recorded as “more soluble at an acid pH than a basic pH”. The solubility in water result in data set [1] is given as “extremely low solubility in water”; in data set [1] (listed as compound of formula (II)), “low solubility in water except at low or high pH conditions”.
As for `C[C@H]1CN(C[C@H](Cc2ccccc2)C(=O)O)CC[C@@]1(C)c1cccc(O)c1` [(3R, 4R, S)-Q-CH2CH(CH2(C6H5))C(O)OH, (αS,3R,4R)-4-(3-hydroxyphenyl)-3,4-dimethyl-α-(phenylmethyl)-1-piperidinepropanoic acid monohydrate], the “propensity for reversing analgesia” value with analgesia is reported as “much greater propensity for undesirably reversing analgesia than alvimopan”.
